Usually inhibition stands for the relative decrease from the control value, in per cent.

This experiment addresses T1, Human glucocorticoid receptors (Homo sapiens, UniProt P04150).
T1 construct: made in house; host or cells: Sf9 insect cells, recombinant baculovirus (BAC-TO-BAC)
T1 sequence (P04150 1-777): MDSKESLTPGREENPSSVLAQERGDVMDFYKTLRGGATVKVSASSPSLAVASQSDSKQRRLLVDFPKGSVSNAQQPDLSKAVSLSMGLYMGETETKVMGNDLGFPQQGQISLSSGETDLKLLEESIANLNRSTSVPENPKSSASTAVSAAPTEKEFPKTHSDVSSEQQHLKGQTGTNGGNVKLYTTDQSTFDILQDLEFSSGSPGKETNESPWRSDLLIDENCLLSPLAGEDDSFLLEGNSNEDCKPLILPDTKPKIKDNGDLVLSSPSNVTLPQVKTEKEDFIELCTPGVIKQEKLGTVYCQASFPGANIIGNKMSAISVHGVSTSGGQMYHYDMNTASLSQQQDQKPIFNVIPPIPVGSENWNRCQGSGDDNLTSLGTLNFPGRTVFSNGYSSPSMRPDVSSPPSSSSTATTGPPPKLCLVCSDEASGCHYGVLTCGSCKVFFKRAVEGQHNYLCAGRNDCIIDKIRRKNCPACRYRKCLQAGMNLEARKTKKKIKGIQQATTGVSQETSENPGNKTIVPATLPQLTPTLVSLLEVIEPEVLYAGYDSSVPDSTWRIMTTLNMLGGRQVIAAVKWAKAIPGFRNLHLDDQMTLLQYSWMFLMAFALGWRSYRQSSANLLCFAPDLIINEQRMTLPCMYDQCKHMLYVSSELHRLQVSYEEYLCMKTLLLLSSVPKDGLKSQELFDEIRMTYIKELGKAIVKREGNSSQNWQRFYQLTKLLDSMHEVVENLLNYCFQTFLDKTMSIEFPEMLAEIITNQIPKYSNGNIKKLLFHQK
Briefly: Radioligand filter binding assay, displacement of 3[H]-dexamethasone from hGR. The conditions noted are these: read-out: GR Binding (% Inhibition at 1.7 μM). From the text:
Dexamethasone hereafter referred to as dex was purchased from SIGMA. […] Human glucocorticoid receptors were extracted from Sf9 cells infected with a recombinant baculovirus transfer vector containing the cloned hGR genes. Recombinant baculovirus was generated utilizing the BAC-TO-BAC expression system (Life Technologies) in accordance to instruction from the supplier. The hGR coding sequences were cloned into a baculovirus transfer vector by standard techniques. The recombinant baculoviruses expressing hGR were amplified and used to infect Sf9 cells. Infected cells were harvested 48 hrs post infection. […] The concentration of hGR in the extract was measured as specific ^3[H]-dex binding with the G25-assay as described in J. Steroid Biochem. Molec. […] The extract was aliquoted and stored at −70° C.
The filter binding assay: Dilution series of the test compounds and dex as reference were made from 10 mM (1 mM dex) stock solutions in DMSO. 10 μl of the dilutions was added in duplicates to the wells. The cell extracts were diluted 10 fold in EPMo+MTG buffer (1 mM EDTA, HPO4 20 mM (pH8), 6 mM MTG). […] 110 μl of the diluted ^3[H]-dex were added to the wells. The final concentration of hGR in the experiment was estimated to 1 nM. All preparations were made in […] on ice and with +4° C. temperated buffers. The plates were incubated over night at +4° C. (15-20 hours).
The incubation was stopped by filtration through GF/B filter on the Tomtec Cellharvester. The filtration on the Tomtec Cellharvester was programmed as follows: 1) Preparation before filtration with EP buffer (1 mM EDTA 20 mM HPO4 (pH8)) 2×[Wash/Asp 0.6 sec., Asp 0.5 sec.]; 2) Prewet of GF/B filter with EP+PEI buffer (EP buffer, 0.3% Polyethylenimine) [Asp 0.8 sec.]; 3) Filtration/harvesting of the 96-well incubation plate 3×[Wash/Asp 0.6 sec., Asp 0.5 sec.]. The GF/B filter was dried for at least 1 hour at 65° C. A MeltiLex scintillation wax was melted onto the filter with the Microsealer. The filter was placed in a samplebag, which was thereafter trimmed with scissors to fit the filter cassette. The cassette were placed in the Microbeta and measured for 1 min/position, returning ccpm (corrected counts per minute).
b=((bmax−bmin)/(1+(I/IC50)^S))+bminI
The Microbeta-instrument generates the mean cpm (counts per minute) value/minute and corrects for individual variations between the detectors thus generating corrected cpm values.
As to `Cc1c(NS(C)(=O)=O)cccc1N(Cc1ccccc1)Cc1ccc(C(=O)c2cccc(OCCN3CCCC3=O)c2)cc1` [Example 248, N-{3-[benzyl(4-{3-[2-(2-oxopyrrolidin-1-yl)ethoxy]benzoyl}benzyl)amino]-2-methylphenyl}methanesulfonamide], the inhibition at 1.7 µM came to 96.7%.
The result for `Cc1ncsc1CCOc1cccc(C(=O)c2ccc(CN(Cc3ccccc3)c3cccc(NS(C)(=O)=O)c3C)cc2)c1` [Example 249, N-{3-[benzyl(4-{3-[2-(4-methyl-1,3-thiazol-5-yl)ethoxy]benzoyl}benzyl)amino]-2-methylphenyl}methanesulfonamide] reads 95.4%; that for `Cc1c(NS(C)(=O)=O)cccc1N(Cc1ccccc1)Cc1ccc(C(=O)c2ccc(OC[C@H](O)CO)cc2)cc1` [Example 250, N-(3-{benzyl[4-(4-{[(2R)-2,3-dihydroxypropyl]oxy}benzoyl)benzyl]amino}-2-methylphenyl)methanesulfonamide], 92.9%.
Then `Cc1c(NS(C)(=O)=O)cccc1N(Cc1ccccc1)Cc1ccc(Oc2ccc(OCCCC(=O)NCC(=O)O)cc2)cc1` [Example 251, N-[4-(4-{4-[(benzyl{2-methyl-3-[(methylsulfonyl)amino]phenyl}amino)methyl]phenoxy}phenoxy)butanoyl]glycine], with 94.2%; and `Cc1c(NS(C)(=O)=O)cccc1N(Cc1ccccc1)Cc1ccc(Oc2ccc(OCCCC(=O)NCCC(=O)O)cc2)cc1` [Example 252, N-[4-(4-{4-[(benzyl{2-methyl-3-[(methylsulfonyl)amino]phenyl}amino)methyl]phenoxy}phenoxy)butanoyl]-beta-alanine], with 91.9%; and `Cc1c(NS(C)(=O)=O)cccc1N(Cc1ccccc1)Cc1ccc(Oc2ccc(OCCCC(=O)N(C)CC(=O)O)cc2)cc1` [Example 254, N-[4-(4-{4-[(benzyl{2-methyl-3-[(methylsulfonyl)amino]phenyl}amino)methyl]phenoxy}phenoxy)butanoyl]-N-methylglycine], with 92.8%.
The result for `Cc1c(NS(C)(=O)=O)cccc1N(Cc1ccccc1)Cc1ccc(Oc2ccc(OCCCC(=O)N[C@@H](CCC(=O)O)C(=O)O)cc2)cc1` [Example 255, N-[4-(4-{4-[(benzyl{2-methyl-3-[(methylsulfonyl)amino]phenyl}amino)methyl]phenoxy}phenoxy)butanoyl]-L-glutamic acid] reads 93.6%.
Take `Cc1c(NS(C)(=O)=O)cccc1N(Cc1ccccc1)Cc1ccc(Oc2ccc(OCCCC(=O)N[C@H](C(=O)O)C(C)C)cc2)cc1` [Example 256, N-[4-(4-{4-[(benzyl{2-methyl-3-[(methylsulfonyl)amino]phenyl}amino)methyl]phenoxy}phenoxy)butanoyl]-L-valine]: the inhibition at 1.7 µM came out at 92.6%.
The result for `Cc1c(NS(C)(=O)=O)cccc1N(Cc1ccccc1)Cc1ccc(Oc2ccc(OCCCC(=O)Nc3cc(C(=O)O)n(C)c3)cc2)cc1` [Example 257, 4-{[4-(4-{4-[(benzyl{2-methyl-3-[(methylsulfonyl)amino]phenyl}amino)methyl]phenoxy}phenoxy)butanoyl]amino}-1-methyl-1H-pyrrole-2-carboxylic acid] reads 90.6%; that for `Cc1c(NS(C)(=O)=O)cccc1N(Cc1ccccc1)Cc1ccc(Oc2ccc(OCCCC(=O)N[C@@H](CO)C(=O)O)cc2)cc1` [Example 258, N-[4-(4-{4-[(benzyl{2-methyl-3-[(methylsulfonyl)amino]phenyl}amino)methyl]phenoxy}phenoxy)butanoyl]-L-serine], 91.6%; that for `CC[C@H](C)[C@H](NC(=O)CCCOc1ccc(Oc2ccc(CN(Cc3ccccc3)c3cccc(NS(C)(=O)=O)c3C)cc2)cc1)C(=O)O` [Example 259, N-[4-(4-{4-[(benzyl{2-methyl-3-[(methylsulfonyl)amino]phenyl}amino)methyl]phenoxy}phenoxy)butanoyl]-L-isoleucine], 91.2%.

The record behind these values is patent US6583180B2, “Glucocorticoid receptor modulators” (Abbott Laboratories, priority 2001, dated 2003).
